This note sets out measurements from ChEMBL document CHEMBL5325488, “Discovery of SMD-3040 as a Potent and Selective SMARCA2 PROTAC Degrader with Strong in vivo Antitumor Activity” (J Med Chem, 2023).

For orientation: Emax means the maximal effect, on the per cent scale that the assay sets. By DC50 is commonly meant the concentration at which degradation of the target reaches its halfway point.

What all share (assay type): cell-based
The target in assay [1] is T1, von Hippel-Lindau disease tumor suppressor/SWI/SNF-related matrix-associated actin-dependent regulator of chromatin subfamily A member 2 (Homo sapiens, UniProt P51531+P40337). Description: PROTAC activity at VHL/C-terminal HiBiT fused SMARCA2 in human HeLa cells assessed as induction of SMARCA2 degradation by measuring maximal efficacy incubated for 24 hrs by Nano-Glo HiBiT analysis relative to control. On the technique in general: With HiBiT, luminescence reflects the tagged protein that the partner subunit can reach.
Target sequence in this assay (P40337 whole entry, looked up, the tested form may be a part): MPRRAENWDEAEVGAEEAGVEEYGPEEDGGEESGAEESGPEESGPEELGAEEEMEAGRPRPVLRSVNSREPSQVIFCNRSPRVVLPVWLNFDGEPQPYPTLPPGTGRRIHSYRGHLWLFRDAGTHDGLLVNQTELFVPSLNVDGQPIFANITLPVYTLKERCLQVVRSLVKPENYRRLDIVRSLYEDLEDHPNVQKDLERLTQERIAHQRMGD
Target sequence in this assay (P51531 whole entry, looked up, the tested form may be a part): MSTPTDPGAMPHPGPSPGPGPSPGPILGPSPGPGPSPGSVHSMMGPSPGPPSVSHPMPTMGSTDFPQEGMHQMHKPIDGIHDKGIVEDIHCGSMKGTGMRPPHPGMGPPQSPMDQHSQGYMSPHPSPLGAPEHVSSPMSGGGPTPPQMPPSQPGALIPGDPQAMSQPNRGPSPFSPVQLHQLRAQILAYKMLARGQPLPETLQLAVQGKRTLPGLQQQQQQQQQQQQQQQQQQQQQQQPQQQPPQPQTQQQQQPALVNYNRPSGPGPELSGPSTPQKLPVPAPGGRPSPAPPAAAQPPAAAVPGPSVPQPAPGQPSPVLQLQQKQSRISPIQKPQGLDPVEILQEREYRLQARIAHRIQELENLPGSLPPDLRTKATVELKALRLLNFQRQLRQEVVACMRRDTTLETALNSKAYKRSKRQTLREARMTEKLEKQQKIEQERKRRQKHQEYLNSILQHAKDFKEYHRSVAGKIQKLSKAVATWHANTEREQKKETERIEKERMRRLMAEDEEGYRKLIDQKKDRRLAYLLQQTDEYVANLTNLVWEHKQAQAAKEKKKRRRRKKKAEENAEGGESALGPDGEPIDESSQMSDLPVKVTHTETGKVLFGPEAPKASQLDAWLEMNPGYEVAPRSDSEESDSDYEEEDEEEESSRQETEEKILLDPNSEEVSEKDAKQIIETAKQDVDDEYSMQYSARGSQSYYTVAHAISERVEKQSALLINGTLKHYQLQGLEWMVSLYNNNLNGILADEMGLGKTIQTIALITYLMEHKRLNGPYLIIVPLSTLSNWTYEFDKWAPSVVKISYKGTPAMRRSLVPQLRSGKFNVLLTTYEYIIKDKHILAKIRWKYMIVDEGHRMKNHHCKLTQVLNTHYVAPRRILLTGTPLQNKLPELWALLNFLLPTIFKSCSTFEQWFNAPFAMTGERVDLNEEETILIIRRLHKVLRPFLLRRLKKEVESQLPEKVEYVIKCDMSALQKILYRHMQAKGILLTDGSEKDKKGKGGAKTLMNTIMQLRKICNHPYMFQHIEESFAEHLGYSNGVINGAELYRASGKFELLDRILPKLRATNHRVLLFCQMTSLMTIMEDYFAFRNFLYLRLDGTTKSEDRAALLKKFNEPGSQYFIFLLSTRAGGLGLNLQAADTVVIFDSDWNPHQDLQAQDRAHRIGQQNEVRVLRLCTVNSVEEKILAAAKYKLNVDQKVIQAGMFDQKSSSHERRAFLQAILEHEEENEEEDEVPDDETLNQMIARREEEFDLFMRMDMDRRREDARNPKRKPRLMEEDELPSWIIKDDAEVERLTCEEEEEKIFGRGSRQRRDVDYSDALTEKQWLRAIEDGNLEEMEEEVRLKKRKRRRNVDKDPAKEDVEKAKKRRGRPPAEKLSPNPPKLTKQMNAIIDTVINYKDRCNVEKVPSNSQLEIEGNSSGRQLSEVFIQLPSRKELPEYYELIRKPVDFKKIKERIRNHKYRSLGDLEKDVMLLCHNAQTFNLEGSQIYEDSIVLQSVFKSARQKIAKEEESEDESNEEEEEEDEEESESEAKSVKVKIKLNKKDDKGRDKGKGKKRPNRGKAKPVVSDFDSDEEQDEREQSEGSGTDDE

For assay [2], the target named is T1, von Hippel-Lindau disease tumor suppressor/SWI/SNF-related matrix-associated actin-dependent regulator of chromatin subfamily A member 2. The assay is described as follows: PROTAC activity at VHL/C-terminal HiBiT fused SMARCA2 in human HeLa cells assessed as induction of SMARCA2 degradation incubated for 24 hrs by Nano-Glo HiBiT analysis.
Target sequence in this assay (P51531 whole entry, the tested form may be a part): as the sequence (P51531 whole entry, looked up, the tested form may be a part) above
Target sequence in this assay (P40337 whole entry, the tested form may be a part): as the sequence (P40337 whole entry, looked up, the tested form may be a part) above
For assay [3], the target named is T2, von Hippel-Lindau disease tumor suppressor/SWI/SNF-related matrix-associated actin-dependent regulator of chromatin subfamily A member 4 (Homo sapiens, UniProt P51532+P40337). The assay is described as follows: PROTAC activity at VHL/C-terminal HiBiT fused SMARCA4 in human HeLa cells assessed as induction of SMARCA4 degradation by measuring maximal efficacy incubated for 24 hrs by Nano-Glo HiBiT analysis relative to control.
Target sequence in this assay (P40337 whole entry, looked up, the tested form may be a part): as above
Target sequence in this assay (P51532 whole entry, looked up, the tested form may be a part): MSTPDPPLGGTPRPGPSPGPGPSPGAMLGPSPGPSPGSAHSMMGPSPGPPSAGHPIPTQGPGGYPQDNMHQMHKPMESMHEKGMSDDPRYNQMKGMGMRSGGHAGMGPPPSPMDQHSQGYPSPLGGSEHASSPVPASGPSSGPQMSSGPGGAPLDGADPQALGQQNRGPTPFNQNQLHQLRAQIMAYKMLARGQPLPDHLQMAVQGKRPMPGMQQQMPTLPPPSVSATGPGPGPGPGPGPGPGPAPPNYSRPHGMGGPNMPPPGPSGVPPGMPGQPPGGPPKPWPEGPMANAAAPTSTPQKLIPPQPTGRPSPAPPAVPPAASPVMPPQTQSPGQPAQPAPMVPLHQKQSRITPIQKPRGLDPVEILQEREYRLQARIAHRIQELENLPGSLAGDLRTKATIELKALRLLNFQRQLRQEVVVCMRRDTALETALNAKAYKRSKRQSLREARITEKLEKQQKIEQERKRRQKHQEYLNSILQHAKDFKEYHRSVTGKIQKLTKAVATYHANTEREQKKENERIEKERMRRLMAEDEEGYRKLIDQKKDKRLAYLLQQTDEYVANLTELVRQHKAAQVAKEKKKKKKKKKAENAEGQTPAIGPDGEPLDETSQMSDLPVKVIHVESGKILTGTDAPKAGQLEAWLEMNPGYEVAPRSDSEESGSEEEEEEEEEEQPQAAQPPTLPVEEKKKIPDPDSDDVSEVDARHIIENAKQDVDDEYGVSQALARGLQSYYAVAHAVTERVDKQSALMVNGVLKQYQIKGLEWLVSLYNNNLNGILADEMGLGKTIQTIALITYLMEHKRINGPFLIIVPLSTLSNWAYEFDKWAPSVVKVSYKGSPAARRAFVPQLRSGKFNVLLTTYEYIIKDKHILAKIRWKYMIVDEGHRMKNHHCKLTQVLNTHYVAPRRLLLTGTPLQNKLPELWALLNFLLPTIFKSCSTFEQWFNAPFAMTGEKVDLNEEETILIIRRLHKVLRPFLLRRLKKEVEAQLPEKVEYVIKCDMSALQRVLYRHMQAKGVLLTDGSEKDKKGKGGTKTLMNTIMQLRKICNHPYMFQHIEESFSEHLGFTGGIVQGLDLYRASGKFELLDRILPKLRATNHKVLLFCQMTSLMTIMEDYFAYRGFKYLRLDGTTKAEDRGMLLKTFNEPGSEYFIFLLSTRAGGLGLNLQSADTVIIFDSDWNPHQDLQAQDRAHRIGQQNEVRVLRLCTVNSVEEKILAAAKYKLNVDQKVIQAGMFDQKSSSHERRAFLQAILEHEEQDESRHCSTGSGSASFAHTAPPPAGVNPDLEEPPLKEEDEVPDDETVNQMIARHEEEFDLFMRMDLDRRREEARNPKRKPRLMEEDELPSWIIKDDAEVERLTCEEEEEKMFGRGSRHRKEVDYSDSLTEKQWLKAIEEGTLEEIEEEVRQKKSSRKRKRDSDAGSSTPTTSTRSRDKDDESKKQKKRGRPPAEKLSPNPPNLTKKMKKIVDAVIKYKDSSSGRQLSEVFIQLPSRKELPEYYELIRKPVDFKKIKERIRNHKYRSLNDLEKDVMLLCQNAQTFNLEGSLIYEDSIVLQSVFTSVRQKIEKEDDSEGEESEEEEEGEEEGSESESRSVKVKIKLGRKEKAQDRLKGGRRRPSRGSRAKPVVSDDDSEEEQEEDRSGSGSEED

The target of assay [4] is T2, von Hippel-Lindau disease tumor suppressor/SWI/SNF-related matrix-associated actin-dependent regulator of chromatin subfamily A member 4. The assay is described as follows: PROTAC activity at VHL/C-terminal HiBiT fused SMARCA4 in human HeLa cells assessed as induction of SMARCA4 degradation incubated for 24 hrs by Nano-Glo HiBiT analysis.
Target sequence in this assay (P51532 whole entry, the tested form may be a part): as the sequence (P51532 whole entry, looked up, the tested form may be a part) above
Target sequence in this assay (P40337 whole entry, the tested form may be a part): as the sequence (P40337 whole entry, looked up, the tested form may be a part) above

As to `Cc1ncsc1-c1ccc([C@H](C)NC(=O)[C@@H]2C[C@@H](O)CN2C(=O)[C@@H](NC(=O)CCN2CCN(CCCn3cc(-c4cc(-c5ccccc5O)nnc4N)cn3)CC2)C(C)C)cc1`, the Emax amounted to 62% in assay [1] and 76% in assay [3]. For the same compound, the DC50 in assay [2] is 682 nM; in assay [4] it was 585 nM.
As to `Cc1ncsc1-c1ccc([C@H](C)NC(=O)[C@@H]2C[C@@H](O)CN2C(=O)[C@@H](NC(=O)CCCCn2cc(-c3cc(-c4ccccc4O)nnc3N)cn2)C(C)(C)C)cc1`, the maximal response (Emax) was determined as 85% in assay [1] and 57% in assay [3]. Further, the DC50 is 134 nM in assay [2] and above 1000 nM in assay [4].
On the same counts, the results for `Cc1cc([C@H](C(=O)N2C[C@H](O)C[C@H]2C(=O)N[C@@H](CC(=O)NCCCCCCCCn2cc(-c3cc(-c4ccccc4O)nnc3N)cn2)c2ccc(-c3scnc3C)cc2)C(C)C)on1` are 91%, 93%, 67 nM and 66 nM.
Take `Cc1ncsc1-c1ccc([C@H](C)NC(=O)[C@@H]2C[C@@H](O)CN2C(=O)[C@@H](NC(=O)CCn2cc(-c3cc(-c4ccccc4O)nnc3N)cn2)C(C)(C)C)cc1`: the Emax in assay [1] was 19%; in assay [3], 0%. Also, the DC50 in assay [2] and in assay [4] was above 1000 nM each time.
For `Cc1ncsc1-c1ccc([C@H](C)NC(=O)[C@@H]2C[C@@H](O)CN2C(=O)[C@@H](NC(=O)C2CCC(N3CC4(CCC(n5cc(-c6cc(-c7ccccc7O)nnc6N)cn5)CC4)C3)CC2)C(C)(C)C)cc1` (some centres not stated), the results for the Emax in assay [1] and in assay [3] were 85% and 55%, respectively. Moreover, the DC50 in assay [2] is 25 nM; in assay [4] it was above 1000 nM.
The matching figures for `Cc1ncsc1-c1ccc([C@H](C)NC(=O)[C@@H]2C[C@@H](O)CN2C(=O)[C@@H](NC(=O)CCCCCn2cc(-c3cc(-c4ccccc4O)nnc3N)cn2)C(C)(C)C)cc1`: 93%, 73%, 12 nM and above 1000 nM.
As for `Cc1ncsc1-c1ccc([C@H](C)NC(=O)[C@@H]2C[C@@H](O)CN2C(=O)[C@@H](NC(=O)CCCCCN2CCC(n3cc(-c4cc(-c5ccccc5O)nnc4N)cn3)CC2)C(C)(C)C)cc1`, the Emax in assay [1] came out at 94%; in assay [3], 77%. In addition, the values for the DC50 in assay [2] and in assay [4] were 6 nM and 248 nM, respectively.
As to `Cc1ncsc1-c1ccc([C@H](C)NC(=O)[C@@H]2C[C@@H](O)CN2C(=O)[C@@H](NC(=O)CCCCCCn2cc(-c3cc(-c4ccccc4O)nnc3N)cn2)C(C)(C)C)cc1`, the Emax is 89% in assay [1] and 81% in assay [3]. Moreover, the DC50 in assay [2] was 16 nM; in assay [4], 212 nM.
As to `Cc1ncsc1-c1ccc([C@H](C)NC(=O)[C@@H]2C[C@@H](O)CN2C(=O)[C@@H](NC(=O)[C@H]2CC[C@H](CN3CCC4(CCC(n5cc(-c6cc(-c7ccccc7O)nnc6N)cn5)CC4)CC3)CC2)C(C)(C)C)cc1`, the Emax in assay [1] is 90%; in assay [3] it was 66%. For the same compound, the 50% degradation concentration (DC50) in assay [2] was found to be 5 nM; in assay [4] it was 219 nM.
In the case of `Cc1cc([C@H](C(=O)N2C[C@H](O)C[C@H]2C(=O)N[C@@H](CC(=O)NCCCCCCCn2cc(-c3cc(-c4ccccc4O)nnc3N)cn2)c2ccc(-c3scnc3C)cc2)C(C)C)on1`, the Emax in assay [1] worked out at 91%; in assay [3] it was 92%. Besides, the values for the 50% degradation concentration (DC50) in assay [2] and in assay [4] were 96 nM and 91 nM, respectively.
As to `Cc1ncsc1-c1ccc([C@H](C)NC(=O)[C@@H]2C[C@@H](O)CN2C(=O)[C@@H](NC(=O)CCN2CCC(CCCn3cc(-c4cc(-c5ccccc5O)nnc4N)cn3)CC2)C(C)C)cc1`, the Emax in assay [1] is 12%; in assay [3], 0%. Also, the DC50 in assay [2] and in assay [4] was above 1000 nM in each case.
`Cc1cc([C@H](C(=O)N2C[C@H](O)C[C@H]2C(=O)N[C@@H](CC(=O)NCCCCCCCCCCn2cc(-c3cc(-c4ccccc4O)nnc3N)cn2)c2ccc(-c3scnc3C)cc2)C(C)C)on1`: the Emax amounted to 95% in assay [1] and 93% in assay [3]. Also, the DC50 in assay [2] came to 37 nM; in assay [4], 53 nM.
As for `Cc1ncsc1-c1ccc([C@H](C)NC(=O)[C@@H]2C[C@@H](O)CN2C(=O)[C@@H](NC(=O)CCOCCOCCn2cc(-c3cc(-c4ccccc4O)nnc3N)cn2)C(C)C)cc1`, the Emax was determined as 77% in assay [1] and 59% in assay [3]. Moreover, the DC50 was 313 nM in assay [2] and above 1000 nM in assay [4].
Regarding `Cc1cc([C@H](C(=O)N2C[C@H](O)C[C@H]2C(=O)N[C@@H](CC(=O)NCCCCCCCCCCCCn2cc(-c3cc(-c4ccccc4O)nnc3N)cn2)c2ccc(-c3scnc3C)cc2)C(C)C)on1`, the Emax in assay [1] stood at 93%; in assay [3], 89%. The 50% degradation concentration (DC50) in assay [2] stood at 46 nM; in assay [4], 90 nM.
On to `Cc1ncsc1-c1ccc([C@H](C)NC(=O)[C@@H]2C[C@@H](O)CN2C(=O)[C@@H](NC(=O)COCCOCCOCCn2cc(-c3cc(-c4ccccc4O)nnc3N)cn2)C(C)C)cc1`, for which the maximal response (Emax) in assay [1] came to 71%; in assay [3], 47%. Besides, the DC50 in assay [2] is 455 nM; in assay [4], above 1000 nM.
For the compound `Cc1ncsc1-c1ccc([C@@H](C)NC(=O)[C@H]2C[C@H](O)CN2C(=O)[C@H](NC(=O)C2CCC(N3CCC4(CCC(n5cc(-c6cc(-c7ccccc7O)nnc6N)cn5)CC4)CC3)CC2)C(C)(C)C)cc1` (single isomer, unassigned), the Emax was determined as 90% in assay [1] and 72% in assay [3]. Besides, the DC50 was found to be 34 nM in assay [2] and 315 nM in assay [4].
On to `Cc1ncsc1-c1ccc([C@H](C)NC(=O)[C@@H]2C[C@@H](O)CN2C(=O)[C@@H](NC(=O)CCCCCCCn2cc(-c3cc(-c4ccccc4O)nnc3N)cn2)C(C)(C)C)cc1`, for which the Emax in assay [1] was found to be 95%; in assay [3], 90%. The DC50 stood at 3 nM in assay [2] and 23 nM in assay [4].
Regarding `Cc1cc([C@H](C(=O)N2C[C@H](O)C[C@H]2C(=O)N[C@@H](CC(=O)NCCCCCCCCCn2cc(-c3cc(-c4ccccc4O)nnc3N)cn2)c2ccc(-c3scnc3C)cc2)C(C)C)on1`, the Emax in assay [1] and in assay [3] was 94% each time. For the same compound, the DC50 in assay [2] worked out at 71 nM; in assay [4], 75 nM.
With `Cc1ncsc1-c1ccc([C@H](C)NC(=O)[C@@H]2C[C@@H](O)CN2C(=O)[C@@H](NC(=O)CCCCCCCCn2cc(-c3cc(-c4ccccc4O)nnc3N)cn2)C(C)(C)C)cc1`, the results for the Emax in assay [1] and in assay [3] were 95% and 93%, respectively. For the same compound, the DC50 is 3 nM in assay [2] and 31 nM in assay [4].
On the same counts, the results for `Cc1cc([C@H](C(=O)N2C[C@H](O)C[C@H]2C(=O)N[C@@H](CC(=O)NCCCCCCn2cc(-c3cc(-c4ccccc4O)nnc3N)cn2)c2ccc(-c3scnc3C)cc2)C(C)C)on1` are 86%, 84%, 18 nM and 213 nM.
On to `Cc1ncsc1-c1ccc([C@H](C)NC(=O)[C@@H]2C[C@@H](O)CN2C(=O)[C@@H](NC(=O)CCCn2cc(-c3cc(-c4ccccc4O)nnc3N)cn2)C(C)(C)C)cc1`, for which the Emax in assay [1] is 88%; in assay [3], 84%. Moreover, the DC50 in assay [2] was 132 nM; in assay [4], 463 nM.
For the compound `Cc1ncsc1-c1ccc([C@H](C)NC(=O)[C@@H]2C[C@@H](O)CN2C(=O)[C@@H](NC(=O)CCCCCCCCCCn2cc(-c3cc(-c4ccccc4O)nnc3N)cn2)C(C)(C)C)cc1`, the Emax in assay [1] is 93%; in assay [3], 87%. In addition, the DC50 in assay [2] turned out to be 6 nM; in assay [4] it was 47 nM.
Consider `Cc1ncsc1-c1ccc([C@H](C)NC(=O)[C@@H]2C[C@@H](O)CN2C(=O)[C@@H](NC(=O)CCCCCCCCCCCn2cc(-c3cc(-c4ccccc4O)nnc3N)cn2)C(C)(C)C)cc1`, for which the Emax in assay [1] was 95%; in assay [3], 96%. Besides, the figures for the DC50 in assay [2] and in assay [4] were 3 nM and 13 nM, respectively.
